The record followed here is the NIST ThermoML archive (doi:10.1016/j.jct.2017.12.011).

Where “and” joins values, the source holds several entries; their conditions need not be identical. Equal entries are not always repeated. ± gives the expanded uncertainty stated by the source.

The conditions of this data set: Pendant drop shape.

As usually defined, the surface tension liquid-gas is the work needed to enlarge the surface of a liquid by unit area. Regarding `O` [water], the surface tension liquid-gas was 76.43 ± 1.8 mN/m and 76.39 ± 1.9 mN/m (271.2 K); 75.74 ± 1.8 mN/m and 75.89 ± 1.5 mN/m (274.2 K); 75.11 ± 1.5 mN/m and 75.34 ± 1.9 mN/m (276.2 K); 74.61 ± 2 mN/m and 74.98 ± 1.9 mN/m (278.2 K); 74.5 ± 1.4 mN/m and 74.21 ± 1.3 mN/m (280.2 K).
